Patent US20100267712A1, “ISOINDOLINE COMPOUNDS FOR THE TREATMENT OF SPINAL MUSCULAR ATROPHY AND OTHER USES” (The United States of America, as represented by the …, priority 2007, published 2010)

Tested on: SMN2-linked luciferase-reporter gene construct
Experiment: SMN Splice Reporter Assay (SMN2-linked luciferase reporter)
Type: cell-based
Settings: for EC50: cervical carcinoma cell lines, SMN2 splice luciferase reporter; for Fold Increase: fold-increase of luciferase over baseline reading of transformed cells without any test compound
Method in brief: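 Cervical carcinoma cells carrying an SMN2-luciferase splicing reporter, in-frame only with exon 7 inclusion, were treated with compound. Luciferase activity reported as fold increase over untreated transformed cells, with EC50 derived.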

| Structure (SMILES) | EC50 [nM] | Fold Increase |
| --- | --- | --- |
| C/C=C(/C)c1ccc2c(c1)C(=O)N(c1ccc3c(ccn3C)c1)C2 [Example 122041] | 76 | 1.606 |
| COc1ccc2c(c1)C(=O)N(c1ccc3c(c1)CCC3)C2 [Example 116241] | 98 | 1.512 |
| Cc1ccc2c(c1)C(=O)N(c1ccc3ccsc3c1)C2 [Example 122555] | 87 | 1.509 |
| COc1ccc2c(c1)C(=O)N(c1ccc3c(ccc[n+]3[O-])c1)C2 [Example 121786] | 188 | 1.498 |
| Cc1cc2ccc(N3Cc4ccc(O)cc4C3=O)cc2n1C [Example 124984] |  | 1.401 |
| COc1ccc2c(c1)C(=O)N(c1ccc(C)nc1)C2 [Example 118735] |  | 1.149 |
| Cn1ccc2cc(N3Cc4c(Cl)cccc4C3=O)ccc21 [Example 120786] | 679 | 1.376 |
| Cn1ccc2cc(N3Cc4ccc(N5CCOCC5)cc4C3=O)ccc21 [Example 123587] |  | 1.256 |
| CCCCOc1ccc2c(c1)C(=O)N(c1ccc3sccc3c1)C2 [Example 122552] |  | 1.202 |
| O=C1c2cc3c(cc2CN1c1ccc2ncccc2c1)OCCO3 [Example 120787] | 15 | 1.807 |
| Cn1ccc2ccc(N3Cc4ccc(Cl)cc4C3=O)cc21 [Example 120950] | 984 | 1.482 |
| Cn1ccc2ccc(N3Cc4ccc(O)cc4C3=O)cc21 [Example 124039] | 520 | 1.893 |
| Cn1ccc2cc(N3Cc4c(N)cccc4C3=O)ccc21 [Example 120120] |  | 1.094 |
| Cc1cc2ccc(N3Cc4ccc(-c5cccnc5)cc4C3=O)cc2n1C [Example 125093] |  | 1.082 |
| Cc1cc2cc(N3Cc4ccc(Br)cc4C3=O)ccc2n1C(C)C [Example 125385] |  | 1.454 |
| Cn1ccc2cc(N3Cc4ccc(NS(C)(=O)=O)cc4C3=O)ccc21 [Example 124980] |  | 1.534 |
| Cn1ccc2ccc(N3Cc4cccc([N+](=O)[O-])c4C3=O)cc21 [Example 120282] | 737 | 1.291 |
| O=C1c2cc3c(cc2CN1c1ccc2sccc2c1)OCCO3 [Example 118900] | 66 | 1.399 |
| COc1ccc2c(c1)C(=O)N(c1ccc3c(ccn3C)n1)C2 [Example 121263] | 161 | 1.39 |
| Cn1ccc2cc(N3Cc4cccc(Cl)c4C3=O)ccc21 [Example 120793] | 361 | 1.395 |
| COCn1ccc2ccc(N3Cc4ccc(Br)cc4C3=O)cc21 [Example 120430] | 306 | 1.374 |
| COc1cc2c(cc1OC)C(=O)N(c1ccc3c(ccn3C)c1)C2 [Example 120789] | 9790 | 1.427 |
| COc1ccc2c(c1)C(=O)N(c1ccc3ccc(Cl)nc3c1)C2 [Example 123710] | 47 | 1.327 |
| Cn1ccc2cc(N3Cc4ccc(C(F)(F)F)cc4C3=O)ccc21 [Example 122037] | 862 | 1.406 |
| COc1ccc2c(c1)C(=O)N(c1ccc3ocnc3c1)C2 [Example 120957] |  | 1.254 |

| Structure (SMILES) | EC50 [nM] | Fold Increase |
| --- | --- | --- |
| CCCCOc1ccc2c(c1)C(=O)N(c1ccc3c(c1)cc(C)n3C)C2 [Example 124035] |  | 1.118 |
| CC(C)n1ccc2cc(N3Cc4ccc(N(C)C)cc4C3=O)ccc21 [Example 125271] | 22 | 1.285 |
| O=C1c2ccccc2CN1c1ccc(Br)nc1 [Example 112649] | 18200 | 1.373 |
| Cc1cc2cc(N3Cc4ccc(CC(C)C)cc4C3=O)ccc2n1C [Example 123439] | 359 | 1.357 |
| Cn1ccc2cc(N3Cc4cc(Cl)ccc4C3=O)ccc21 [Example 120778] | 131 | 1.492 |
| COc1ccc2c(c1)C(=O)N(c1ccc3cc(C)[nH]c3c1)C2 [Example 125097] | 50 | 1.347 |
| CC(=O)Nc1ccc2c(c1)C(=O)N(c1ccc3c(c1)cc(C)n3C)C2 [Example 124034] | 440 | 1.494 |
| O=C1c2cc3c(cc2CN1c1ccc2ccoc2c1)OCCO3 [Example 118903] | 6 | 1.458 |
| CC(=O)Nc1ccc2c(c1)C(=O)N(c1ccc3cc[nH]c3c1)C2 [Example 125269] | 15 | 1.416 |
| Cc1cccc2c1CN(c1ccc3ccn(C)c3c1)C2=O [Example 120953] | 1160 | 1.495 |
| Cc1cc2cc(N3Cc4ccc(N(C)C)cc4C3=O)ccc2n1C(C)C [Example 125602] |  | 1.139 |
| CC(=O)Nc1ccc2c(c1)CN(c1ccc3c(ccn3C)c1)C2=O [Example 121508] |  | 1.201 |
| Cc1cc2cc(N3Cc4ccc(OC5CCCC5)cc4C3=O)ccc2n1C [Example 123938] |  | 1.2 |
| COc1ccc2c(c1)C(=O)N(c1ccc3nc(Cl)ccc3c1)C2 [Example 123206] | 119 | 1.531 |
| Cn1ccc2ccc(N3Cc4cc5c(cc4C3=O)OCCO5)cc21 [Example 118902] | 29 | 1.774 |
| Cn1ccc2cc(N3Cc4ccc(OC(F)(F)Br)cc4C3=O)ccc21 [Example 122431] | 220 | 1.552 |
| O=C1c2ccccc2CN1c1ccc2c(c1)OCO2 [Example 116238] | 2450 | 1.235 |
| COc1ccc2c(c1)C(=O)N(c1ccc3[nH]ccc3n1)C2 [Example 121515] | 222 | 1.24 |
| COc1ccc2c(c1)C(=O)N(c1ccc3ccn(C(C)C)c3c1)C2 [Example 120283] |  | 1.273 |
| Cn1ccc2cc(N3Cc4ccc(O)cc4C3=O)ccc21 [Example 121510] | 159 | 1.542 |
| CCOc1ccc2c(c1)C(=O)N(c1ccc3cc(C)n(C)c3c1)C2 [Example 124983] |  | 1.305 |
| CC(C)Cc1ccc2c(c1)C(=O)N(c1ccc3c(ccn3C)c1)C2 [Example 121927] | 36 | 1.323 |
| COc1ccc2c(c1)C(=O)N(c1ccc3c(OC)ccnc3c1)C2 [Example 123712] | 147 | 1.38 |
| COc1cccc2c1CN(c1ccc3sccc3c1)C2=O [Example 121509] | 3710 | 1.564 |
| COc1cc2c(cc1OC)C(=O)N(c1ccc3c(c1)cc(C)n3C)C2 [Example 124036] | 1640 | 1.34 |

| Structure (SMILES) | EC50 [nM] | Fold Increase |
| --- | --- | --- |
| CC(C)C(=O)Nc1ccc2c(c1)C(=O)N(c1ccc3c(ccn3C)c1)C2 [Example 124863] |  | 1.251 |
| COc1ccc2c(c1)C(=O)N(c1ccc3[nH]c(=O)[nH]c3c1)C2 [Example 120433] | 977 | 1.296 |
| COc1ccc2c(c1)C(=O)N(c1ccc3ccn(C(C)=O)c3c1)C2 [Example 121260] | 35 | 1.414 |
| O=C1c2cc(Br)ccc2CN1c1ccc2ncccc2c1 [Example 124033] | 225 | 1.795 |
| COc1ccc2c(c1)C(=O)N(c1ccc(C(C)C)nc1)C2 [Example 119655] | 491 | 1.372 |
| COc1ccc2c(c1)CN(c1ccc3ccsc3c1)C2=O [Example 121511] | 113 | 1.808 |
| CC(=O)Nc1ccc2c(c1)CN(c1ccc3ccn(C)c3c1)C2=O [Example 121506] | 1040 | 1.488 |
| Cn1ccc2ccc(N3Cc4cc(Cl)ccc4C3=O)cc21 [Example 120779] | 317 | 1.704 |
| CCc1ccc2c(c1)C(=O)N(c1ccc3ccsc3c1)C2 [Example 122683] | 125 | 1.582 |
| COc1ccc2c(c1)C(=O)N(c1ccc3c(c1)N(C)CCN3C)C2 [Example 122436] | 5950 | 1.354 |
| Cn1ccc2ccc(N3Cc4ccc(N5CCOCC5)cc4C3=O)cc21 [Example 124539] |  | 1.652 |
| CCOc1ccc2c(c1)C(=O)N(c1ccc3c(c1)cc(C)n3C)C2 [Example 123328] | 444 | 1.316 |
| CCCc1ccc2c(c1)C(=O)N(c1ccc3c(ccn3C(C)C)c1)C2 [Example 125386] |  | 1.037 |
| COc1ccc2c(c1)C(=O)N(c1ccc3c(C)ccnc3c1)C2 [Example 124038] | 26 | 1.509 |
| Cn1ccc2ccc(N3Cc4cc(N)ccc4C3=O)cc21 [Example 121257] | 175 | 1.856 |
| Cn1ccc2cc(N3Cc4cc(F)ccc4C3=O)ccc21 [Example 122316] | 65 | 1.401 |
| Cc1cc2ccc(N3Cc4ccc(-c5ccccc5)cc4C3=O)cc2n1C [Example 124978] |  | 1.115 |
| COc1ccc2c(c1)CN(c1ccc3c(ccn3C)c1)C2=O [Example 120782] | 184 | 1.49 |
| Cn1ccc2ccc(N3Cc4cccc(Cl)c4C3=O)cc21 [Example 120792] | 238 | 1.642 |
| COc1ccc2c(c1)C(=O)N(c1ccc3c(c1)n(C)c(=O)n3C)C2 [Example 120432] | 830 | 1.234 |
| COc1ccc2c(c1)C(=O)N(c1ccc3nccc(C)c3c1)C2 [Example 123589] | 78 | 1.541 |
| COc1ccc2c(c1)C(=O)N(c1ccc3scc(C)c3c1)C2 [Example 123012] | 272 | 1.773 |
| COCc1cc2cc(N3Cc4ccc(OC)cc4C3=O)ccc2n1C [Example 124328] |  | 1.305 |
| Cc1cccc2c1CN(c1ccc3c(ccn3C)c1)C2=O [Example 120952] | 414 | 1.374 |
| Cn1ccc2ccc(N3Cc4cccc(N)c4C3=O)cc21 [Example 120429] | 152 | 1.745 |
